Test in all cases: Antifungal activity, MIC microdilution
Holding throughout (assay type): cell-based
Background: Dilution methods test growth across graded concentrations, often in twofold steps.

The test system of one test is Saccharomyces cerevisiae. The method, then: (§1) Briefly the following procedure was used to evaluate such activity. A 96 U-bottom microtiter plate was filled (50 μl/well) with RPMI 1640. The compounds to be evaluated were placed in appropriate wells, and serial diluted in successive wells to provide 11 dilutions. The concentrations ranged from 64 through 0.06 μg/ml. An adjusted inoculum of fungi (50 μl) was added to each well and the plates were incubated at 35° C. for 24-48 hours.

A further test has as its system Candida rugosa. Particulars: strain 94-10, RPMI 1640, 35° C., 24-48 hours. The method, then: as §1
A further test concerns Aspergillus niger. Particulars: strain S-430, RPMI 1640, 35° C., 24-48 hours. On the procedure: as §1
The subject of a further test is Candida zeylanoided. The following applies: strain 94-15, RPMI 1640, 35° C., 24-48 hours. The method, then:
as §1

A further test has as its system Candida lusitaniae. The following applies: Clavispora lusitaniae; strain 94-3; RPMI 1640, 35° C., 24-48 hours; read-out: MIC. On the procedure:
as §1

For the next test, the system named is Candida pseudotropicalis. The following applies: strain ATCC 28838, RPMI 1640, 35° C., 24-48 hours. On the procedure:
as §1

The subject of another test is Candida albicans. Particulars: RPMI 1640, 35° C., 24-48 hours. The method, then: as §1
The test system of the next test is Aspergillus flavus. The method, then: as §1
A further test concerns Candida krussii. The following applies: strain 94-2, RPMI 1640, 35° C., 24-48 hours. On the procedure:
as §1, with “Antifungal activity for the compounds of this invention was established by evaluating a representative compound of this invention (Compound I) against several strains of fungi. Briefly” for “Briefly”

In a further test the test system is Aspergillus fumigatus. The following applies: strain ATCC 26933, RPMI 1640, 35° C., 24-48 hours. The method, then:
as §1, with “Antifungal activity for the compounds of this invention was established by evaluating a representative compound of this invention (Compound I) against several strains of fungi. Briefly” for “Briefly”

The next test has as its system Candida tropicalis. Particulars: RPMI 1640, 35° C., 24-48 hours. The method, then: as §1, with “Antifungal activity for the compounds of this invention was established by evaluating a representative compound of this invention (Compound I) against several strains of fungi. Briefly” for “Briefly”
For another test, the system named is Candida glabrata. Particulars: strain ATCC 90030, RPMI 1640, 35° C., 24-48 hours. On the procedure:
as §1, with “Antifungal activity for the compounds of this invention was established by evaluating a representative compound of this invention (Compound I) against several strains of fungi. Briefly” for “Briefly”

A further test deals with Candida parapsilosis. Particulars: RPMI 1640, 35° C., 24-48 hours. The method, then: as §1, with “Antifungal activity for the compounds of this invention was established by evaluating a representative compound of this invention (Compound I) against several strains of fungi. Briefly” for “Briefly”
Test [1] concerns Filobasidiella neoformans. Particulars: strain ATCC 7472, RPMI 1640, 35° C., 24-48 hours. The method, then: as §1, with “Antifungal activity for the compounds of this invention was established by evaluating a representative compound of this invention (Compound I) against several strains of fungi. Briefly” for “Briefly”
The next test deals with Cryptococcus neoformans. Particulars: strain ATCC 90112, RPMI 1640, 35° C., 24-48 hours. On the procedure:
as §1, with “Antifungal activity for the compounds of this invention was established by evaluating a representative compound of this invention (Compound I) against several strains of fungi. Briefly” for “Briefly”

Setting [2] is: Aspergillus niger, read-out: MIC.
Setting [3] is: Kluyveromyces marxianus, ATCC28838, read-out: MIC.
Where [4] appears, read: Aspergillus flavus, ATCC12963, strain ATCC 12963, RPMI 1640, 35° C., 24-48 hours, read-out: MIC.
[5] abbreviates: Aspergillus fumigatus, ATCC26933, read-out: MIC.
[6] abbreviates: Candida tropicalis, strain 94-14, read-out: MIC.
The mark [7] stands for this setting: Nakaseomyces glabratus, ATCC90030, read-out: MIC.
Where [8] appears, read: Lodderomyces parapsilosis, ATCC90018, strain ATCC 90018, read-out: MIC.
Where [9] appears, read: Lodderomyces parapsilosis, strain 94-8, read-out: MIC.
[10] abbreviates: Lodderomyces parapsilosis, strain 94-9, read-out: MIC.
Where [11] appears, read: Cryptococcus neoformans, ATCC7472, read-out: MIC.
Where [12] appears, read: Cryptococcus neoformans, ATCC90112, read-out: MIC.
[13] abbreviates: Saccharomyces cerevisiae, ATCC2601, strain ATCC 2601, RPMI 1640, 35° C., 24-48 hours, read-out: MIC.
[14] abbreviates: Candida albicans, ATCC90028, strain ATCC 90028.

Values after ≈ are worked out from the molar mass of the structure shown. Like-named read-outs stand apart in the source and are kept apart here.

From US6015809A (priority 1999, dated 2000) come the findings set out here.

Usually MIC stands for the smallest concentration in the dilution series that meets the test's criterion for growth inhibition. As for `CC1C=CC=CC=CC=CC=CC=CC=CC(OC2OC(C)C(O)C(N)C2O)CC2OC(O)(CC(O)CC(O)C(O)CCC(O)CC(O)CC(=O)OC(C)C(C)C1O)CC(O)C2C(=O)O` (stereo not drawn) [Amphtericin B], the MIC against Saccharomyces cerevisiae (Saccharomyces cerevisiae, ATCC2601) was no more than 0.12 µg/mL; in the test on Candida rugosa (Diutina rugosa, read-out: MIC), 0.25 µg/mL (≈ 0.271 µM); in the test on Aspergillus niger (setting [2]), 0.25 µg/mL (≈ 0.271 µM); in the test with Candida zeylanoided (Candida, read-out: MIC) it was 0.25 µg/mL (≈ 0.271 µM); with Candida lusitaniae it was no more than 0.12 µg/mL; with Candida pseudotropicalis (setting [3]), 0.25 µg/mL (≈ 0.271 µM). The minimal inhibitory concentration (MIC) with Candida albicans (Candida albicans, ATCC90028, strain ATCC 90028, read-out: MIC) was 0.25 µg/mL (≈ 0.271 µM); with Candida albicans (Candida albicans, strain 94-1, read-out: MIC), no more than 0.12 µg/mL; in the test on Candida albicans (Candida albicans, strain 1063, read-out: MIC), 0.25 µg/mL (≈ 0.271 µM); in the test with Candida albicans (Candida albicans, strain 1117, read-out: MIC), 0.25 µg/mL (≈ 0.271 µM); in the test on Candida albicans (Candida albicans, strain C-83, read-out: MIC), 0.25 µg/mL (≈ 0.271 µM); in the test on Aspergillus flavus (setting [4]), 2 µg/mL (≈ 2.16 µM). The minimal inhibitory concentration (MIC) in the test with Candida krussii (Candida, read-out: MIC) was 0.5 µg/mL (≈ 0.541 µM); with Aspergillus fumigatus (setting [5]), 0.25 µg/mL (≈ 0.271 µM); in the test on Candida tropicalis (setting [6]), 0.25 µg/mL (≈ 0.271 µM); in the test with Candida tropicalis (strain 94-13) it was 0.25 µg/mL (≈ 0.271 µM); in the test on Candida glabrata (setting [7]), 0.25 µg/mL (≈ 0.271 µM); with Candida parapsilosis (setting [8]), no more than 0.12 µg/mL. The MIC with Candida parapsilosis (setting [9]) was 0.25 µg/mL (≈ 0.271 µM); with Candida parapsilosis (setting [10]), 0.5 µg/mL (≈ 0.541 µM); in test [1] (setting [11]), 0.12 µg/mL (≈ 0.13 µM); with Cryptococcus neoformans (setting [12]) it was no more than 0.12 µg/mL.
For the molecule `Clc1ccc(COC(Cn2ccnc2)c2ccc(Cl)cc2Cl)c(Cl)c1` (stereo not drawn) [Miconazole], the MIC was no more than 0.12 µg/mL with Saccharomyces cerevisiae (setting [13]); no more than 0.12 µg/mL in the test on Candida rugosa (Diutina rugosa, read-out: MIC); 4 µg/mL (≈ 9.61 µM) in the test with Aspergillus niger (setting [2]); 0.25 µg/mL (≈ 0.601 µM) in the test with Candida zeylanoided (Candida, read-out: MIC); no more than 0.12 µg/mL in the test on Candida lusitaniae; no more than 0.12 µg/mL in the test on Candida pseudotropicalis (setting [3]). In addition, the MIC against Candida albicans (setting [14]) worked out at 0.5 µg/mL (≈ 1.2 µM); in the test with Candida albicans (Candida albicans, strain 94-1), 8 µg/mL (≈ 19.2 µM); in the test with Candida albicans (Candida albicans, strain 1063) it was 1 µg/mL (≈ 2.4 µM); in the test on Candida albicans (Candida albicans, strain 1117) it was 1 µg/mL (≈ 2.4 µM); with Candida albicans (Candida albicans, strain C-83), 8 µg/mL (≈ 19.2 µM); in the test with Aspergillus flavus (Aspergillus flavus, ATCC12963), 0.5 µg/mL (≈ 1.2 µM). For the same molecule, the MIC is 2 µg/mL (≈ 4.81 µM) with Candida krussii (Candida, read-out: MIC); 1 µg/mL (≈ 2.4 µM) in the test on Aspergillus fumigatus (setting [5]); 4 µg/mL (≈ 9.61 µM) in the test on Candida tropicalis (setting [6]); 4 µg/mL (≈ 9.61 µM) against Candida tropicalis (strain 94-13); no more than 0.12 µg/mL with Candida glabrata (setting [7]); no more than 0.12 µg/mL with Candida parapsilosis (setting [8]). The MIC was 0.25 µg/mL (≈ 0.601 µM) in the test on Candida parapsilosis (setting [9]), 0.5 µg/mL (≈ 1.2 µM) in the test with Candida parapsilosis (setting [10]), 0.25 µg/mL (≈ 0.601 µM) in test [1] (setting [11]) and no more than 0.12 µg/mL in the test on Cryptococcus neoformans (setting [12]).
As to `OC(Cn1cncn1)(Cn1cncn1)c1ccc(F)cc1F` [Fluconazole], the minimum inhibitory concentration (MIC) in the test on Saccharomyces cerevisiae (setting [13]) was 8 µg/mL (≈ 26.1 µM); in the test with Candida rugosa (Diutina rugosa, read-out: MIC), 2 µg/mL (≈ 6.53 µM); with Aspergillus niger (setting [2]), greater than 16 µg/mL; in the test on Candida zeylanoided (Candida, read-out: MIC), no less than 16 µg/mL; in the test with Candida lusitaniae, 1 µg/mL (≈ 3.27 µM); with Candida pseudotropicalis (setting [3]), no more than 0.12 µg/mL. For the same molecule, the minimal inhibitory concentration (MIC) is no less than 16 µg/mL in the test on Candida albicans (setting [14]); no less than 16 µg/mL with Candida albicans (Candida albicans, strain 94-1); 4 µg/mL (≈ 13.1 µM) against Candida albicans (Candida albicans, strain 1063); 8 µg/mL (≈ 26.1 µM) in the test with Candida albicans (Candida albicans, strain 1117); no less than 16 µg/mL against Candida albicans (Candida albicans, strain C-83); greater than 16 µg/mL in the test with Aspergillus flavus (setting [4]). In addition, the minimum inhibitory concentration (MIC) in the test with Candida krussii (Candida, read-out: MIC) was no less than 16 µg/mL; in the test with Aspergillus fumigatus (setting [5]), greater than 16 µg/mL; in the test on Candida tropicalis (setting [6]), no less than 16 µg/mL; with Candida tropicalis (strain 94-13), no less than 16 µg/mL; in the test with Candida glabrata (setting [7]), 4 µg/mL (≈ 13.1 µM); in the test on Candida parapsilosis (setting [8]), 0.5 µg/mL (≈ 1.63 µM). The minimum inhibitory concentration (MIC) with Candida parapsilosis (setting [9]) was determined as 0.5 µg/mL (≈ 1.63 µM); in the test on Candida parapsilosis (setting [10]) it was 0.5 µg/mL (≈ 1.63 µM); in [1] (setting [11]), 16 µg/mL (≈ 52.2 µM); in the test on Cryptococcus neoformans (setting [12]), 8 µg/mL (≈ 26.1 µM).
For the molecule `C[C@@H]1[C@H](O)[C@@H](C)/C=C/C=C/CC/C=C/C=C/C=C/C=C/C(O[C@H]2O[C@H](C)[C@@H](O)[C@H](N)[C@@H]2O)CC2O[C@](O)(CC(O)C(O)CCC(O)CC(O)CC(O)CC(=O)O[C@H]1C)CC(O)C2C(=O)O` (stereo partly drawn) [Nystatin], the MIC in the test on Saccharomyces cerevisiae (strain ATCC 2601, RPMI 1640, 35° C., 24-48 hours) is 2 µg/mL (≈ 2.16 µM); in the test with Candida rugosa, 2 µg/mL (≈ 2.16 µM); in the test on Aspergillus niger it was 4 µg/mL (≈ 4.32 µM); in the test with Candida zeylanoided, 1 µg/mL (≈ 1.08 µM); in the test with Candida pseudotropicalis, 1 µg/mL (≈ 1.08 µM); against Candida albicans (strain 94-1) it was 2.0 µg/mL (≈ 2.16 µM). Besides, the MIC was 2 µg/mL (≈ 2.16 µM) in the test with Candida albicans (strain 1063); 1 µg/mL (≈ 1.08 µM) in the test with Candida albicans (strain 1117); 1 µg/mL (≈ 1.08 µM) in the test with Candida albicans (strain ATCC 90028); 2 µg/mL (≈ 2.16 µM) against Candida albicans (strain C-83); no less than 16 µg/mL with Aspergillus flavus (strain ATCC 12963, RPMI 1640, 35° C., 24-48 hours); 2 µg/mL (≈ 2.16 µM) in the test on Candida krussii. For the same molecule, the MIC against Aspergillus fumigatus turned out to be 1 µg/mL (≈ 1.08 µM); against Candida tropicalis (strain 94-13), 1 µg/mL (≈ 1.08 µM); in the test with Candida tropicalis (strain 94-14) it was 2 µg/mL (≈ 2.16 µM); against Candida glabrata, 1 µg/mL (≈ 1.08 µM); against Candida parapsilosis (strain 94-8), 1 µg/mL (≈ 1.08 µM); in the test on Candida parapsilosis (strain 94-9), 1 µg/mL (≈ 1.08 µM). The MIC against Candida parapsilosis (strain ATCC 90018) turned out to be 1 µg/mL (≈ 1.08 µM); in test [1], 0.5 µg/mL (≈ 0.54 µM); in the test with Cryptococcus neoformans, 0.5 µg/mL (≈ 0.54 µM).
